In patent US6831081B2, “4-Oxo-4,7-dihydrothieno[2,3-b]pyridine-5-carboxamides as antiviral agents” (Pharmacia & Upjohn, priority 2002, dated 2004):
pIC50: −log10 of the molar value.

What was measured:
HCMV polymerase = molecular target: T1, HCMV polymerase (Human cytomegalovirus, UniProt P08546); experiment: HCMV polymerase scintillation proximity assay; format: biochemical
T1 construct: made in house; host or cells: SF-9 insect cells (recombinant baculovirus)
Experimental: (§1) The HCMV polymerase assay is performed using a scintillation proximity assay (SPA) as described in several references, such as N.D. Cook, et al., Pharmaceutical Manufacturing International, pages 49-53 (1992), K Takeuchi, Laboratory Practice, September issue (1992); U.S. Pat. No. 4,568,649 (1986); which are incorporated by reference herein. Reactions are performed in 96-well plates. The assay is conducted in 100 μl volume with 5.4 mM HEPES (pH 7.5), 11.7 mM KCl, 4.5 mM MgCl2, 0.36 mg/ml BSA, and 90 nM ^3H-dTTP. Assays are run with and without CHAPS, (3-[(3-Cholamidopropyl)-dimethylammonio]-1-propane-sulfonate) at a final concentration of 2 mM. HCMV polymerase is diluted in enzyme dilution buffer containing 50% glycerol, 250 mM NaCl, 10 mM HEPES (pH 7.5), […] BSA, and 0.01% sodium azide. The HCMV polymerase, which is expressed in recombinant baculovirus-infected SF-9 cells and purified according to literature procedures, is added at 10% (or 10 μl) of the final reaction volume, i.e., 100 μl. Compounds are diluted in 50% DMSO and 10 μl are added to each well. Control wells contain an equivalent concentration of DMSO. Unless noted otherwise, reactions are initiated via the addition of 6 nM biotinylated poly(dA)-oligo(dT) template/primer to reaction mixtures containing the enzyme, substrate, and compounds of interest. Plates are incubated in a 25° C. or 37° C. H2O bath and terminated via the addition of 40 μl/reaction of 0.5 M EDTA (pH 8) per well. Reactions are terminated within the time-frame during which substrate incorporation is linear and varied depending upon the enzyme and conditions used, Le., 30 min. for HCMV polymerase. Ten (10) μl of streptavidin-SPA beads (20 mg/ml in PBS/10% glycerol) are added following termination of the reaction. Plates are incubated 10 min. at 37° C., then equilibrated to room temperature, and counted on a Packard Topcount. Linear regressions are performed and IC50's are calculated using computer software.
(§2) A modified version of the above HCMV polymerase assay is performed as described above, but with the following changes: Compounds are diluted in 100% DMSO until final dilution into assay buffer. In the previous assay, compounds are diluted in 50% DMSO. 4.5 mM Dithiothreitol (DTT) is added to the polymerase buffer.
(§3) All results are listed as Polymerase IC50(μM) values. In Table 1, the term “n.d.” refers to activity data not determined.

VZV polymerase = VZV polymerase (Varicella-zoster virus, UniProt P09252); experiment: VZV polymerase assay (SPA); format: biochemical
Experimental: [Worded in the source for another target; used here, by the source, with some conditions changed.] as §1, with “Control wells contain an equivalent concentration of DMSO. Unless noted otherwise, reactions are initiated via the addition of 6 nM biotinylated poly(dA)-oligo(dT) template/primer to reaction mixtures containing the enzyme, substrate, and compounds of interest. Plates are incubated in a 25° C. or 37° C. H2O bath and terminated via the addition of 40 μl/reaction of 0.5 M EDTA (pH 8) per well. Reactions are terminated within the time-frame during which substrate incorporation is linear and varied depending upon the enzyme and conditions used, Le., 30 min. for HCMV polymerase. Ten (10) μl of streptavidin-SPA beads (20 mg/ml in PBS/10% glycerol) are added following termination of the reaction.” left out, “software. […]” for “software.”
as §3

HSV polymerase = HSV polymerase (Human herpesvirus 1, UniProt P04293); experiment: HSV polymerase assay (SPA); format: biochemical
Experimental: [Worded in the source for another target; used here, by the source, with some conditions changed.] as §1, §2, §3

Sequence of HSV polymerase (P04293 whole entry): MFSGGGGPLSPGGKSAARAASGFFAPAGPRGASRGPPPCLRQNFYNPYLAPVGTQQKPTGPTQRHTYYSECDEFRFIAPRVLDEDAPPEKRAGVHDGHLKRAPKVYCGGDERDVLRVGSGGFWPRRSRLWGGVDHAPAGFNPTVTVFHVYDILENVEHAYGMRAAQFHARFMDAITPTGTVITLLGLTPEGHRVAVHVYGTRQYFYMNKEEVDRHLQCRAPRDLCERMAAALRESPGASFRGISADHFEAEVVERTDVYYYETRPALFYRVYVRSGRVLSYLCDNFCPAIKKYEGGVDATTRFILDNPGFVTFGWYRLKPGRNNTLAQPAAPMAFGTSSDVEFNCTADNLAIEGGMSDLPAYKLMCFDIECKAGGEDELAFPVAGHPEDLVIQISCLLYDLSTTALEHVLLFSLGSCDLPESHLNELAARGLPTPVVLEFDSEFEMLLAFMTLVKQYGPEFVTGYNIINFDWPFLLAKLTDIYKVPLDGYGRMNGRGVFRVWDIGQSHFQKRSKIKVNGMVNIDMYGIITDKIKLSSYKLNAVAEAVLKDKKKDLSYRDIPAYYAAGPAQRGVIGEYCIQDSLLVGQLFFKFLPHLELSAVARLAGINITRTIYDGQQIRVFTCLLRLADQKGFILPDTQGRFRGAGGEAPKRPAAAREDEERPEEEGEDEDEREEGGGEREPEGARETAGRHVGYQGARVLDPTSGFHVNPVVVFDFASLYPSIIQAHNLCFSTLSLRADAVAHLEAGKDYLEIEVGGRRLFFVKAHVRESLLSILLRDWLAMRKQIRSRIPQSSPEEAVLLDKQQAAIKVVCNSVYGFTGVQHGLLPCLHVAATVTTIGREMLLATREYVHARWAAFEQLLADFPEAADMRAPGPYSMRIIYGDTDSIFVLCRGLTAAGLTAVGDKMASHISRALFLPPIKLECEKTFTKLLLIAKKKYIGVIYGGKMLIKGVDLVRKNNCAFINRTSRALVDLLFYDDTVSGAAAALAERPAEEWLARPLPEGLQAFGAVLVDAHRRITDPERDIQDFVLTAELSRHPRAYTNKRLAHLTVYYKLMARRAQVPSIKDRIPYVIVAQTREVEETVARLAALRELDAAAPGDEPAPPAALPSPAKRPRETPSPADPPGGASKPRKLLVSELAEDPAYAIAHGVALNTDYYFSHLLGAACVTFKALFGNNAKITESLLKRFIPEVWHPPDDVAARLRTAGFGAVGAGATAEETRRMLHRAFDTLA
T1 sequence (P08546 whole entry): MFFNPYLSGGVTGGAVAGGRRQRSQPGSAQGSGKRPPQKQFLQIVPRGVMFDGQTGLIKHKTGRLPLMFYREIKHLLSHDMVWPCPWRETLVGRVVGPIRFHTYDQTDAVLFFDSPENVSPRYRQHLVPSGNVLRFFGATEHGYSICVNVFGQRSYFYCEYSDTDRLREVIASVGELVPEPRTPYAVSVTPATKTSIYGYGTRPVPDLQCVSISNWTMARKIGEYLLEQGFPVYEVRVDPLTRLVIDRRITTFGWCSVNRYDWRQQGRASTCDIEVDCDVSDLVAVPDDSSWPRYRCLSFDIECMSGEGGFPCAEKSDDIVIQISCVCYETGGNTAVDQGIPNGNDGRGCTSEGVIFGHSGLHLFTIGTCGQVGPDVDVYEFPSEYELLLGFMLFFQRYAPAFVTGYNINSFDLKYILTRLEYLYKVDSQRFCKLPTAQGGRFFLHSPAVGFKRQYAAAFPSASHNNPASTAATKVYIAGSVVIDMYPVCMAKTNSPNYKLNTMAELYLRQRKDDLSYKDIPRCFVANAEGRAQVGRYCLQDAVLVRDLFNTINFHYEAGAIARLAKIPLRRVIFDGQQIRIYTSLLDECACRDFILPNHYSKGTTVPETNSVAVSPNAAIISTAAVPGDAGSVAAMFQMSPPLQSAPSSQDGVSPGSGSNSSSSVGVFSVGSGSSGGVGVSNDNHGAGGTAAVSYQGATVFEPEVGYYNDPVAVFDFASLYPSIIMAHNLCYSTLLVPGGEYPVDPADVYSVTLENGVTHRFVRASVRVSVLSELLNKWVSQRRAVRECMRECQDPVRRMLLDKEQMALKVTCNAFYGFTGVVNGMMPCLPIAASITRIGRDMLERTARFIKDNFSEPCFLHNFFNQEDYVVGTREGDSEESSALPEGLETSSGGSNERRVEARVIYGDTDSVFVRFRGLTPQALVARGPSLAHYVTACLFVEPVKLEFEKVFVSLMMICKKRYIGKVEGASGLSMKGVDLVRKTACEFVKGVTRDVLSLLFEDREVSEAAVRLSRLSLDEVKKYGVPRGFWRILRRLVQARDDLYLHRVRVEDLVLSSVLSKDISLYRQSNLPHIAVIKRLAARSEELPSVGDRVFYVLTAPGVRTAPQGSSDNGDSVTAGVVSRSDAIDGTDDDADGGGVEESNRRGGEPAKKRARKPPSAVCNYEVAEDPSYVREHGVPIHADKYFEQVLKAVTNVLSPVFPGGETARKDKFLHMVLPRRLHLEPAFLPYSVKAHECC
Sequence of VZV polymerase (P09252 whole entry): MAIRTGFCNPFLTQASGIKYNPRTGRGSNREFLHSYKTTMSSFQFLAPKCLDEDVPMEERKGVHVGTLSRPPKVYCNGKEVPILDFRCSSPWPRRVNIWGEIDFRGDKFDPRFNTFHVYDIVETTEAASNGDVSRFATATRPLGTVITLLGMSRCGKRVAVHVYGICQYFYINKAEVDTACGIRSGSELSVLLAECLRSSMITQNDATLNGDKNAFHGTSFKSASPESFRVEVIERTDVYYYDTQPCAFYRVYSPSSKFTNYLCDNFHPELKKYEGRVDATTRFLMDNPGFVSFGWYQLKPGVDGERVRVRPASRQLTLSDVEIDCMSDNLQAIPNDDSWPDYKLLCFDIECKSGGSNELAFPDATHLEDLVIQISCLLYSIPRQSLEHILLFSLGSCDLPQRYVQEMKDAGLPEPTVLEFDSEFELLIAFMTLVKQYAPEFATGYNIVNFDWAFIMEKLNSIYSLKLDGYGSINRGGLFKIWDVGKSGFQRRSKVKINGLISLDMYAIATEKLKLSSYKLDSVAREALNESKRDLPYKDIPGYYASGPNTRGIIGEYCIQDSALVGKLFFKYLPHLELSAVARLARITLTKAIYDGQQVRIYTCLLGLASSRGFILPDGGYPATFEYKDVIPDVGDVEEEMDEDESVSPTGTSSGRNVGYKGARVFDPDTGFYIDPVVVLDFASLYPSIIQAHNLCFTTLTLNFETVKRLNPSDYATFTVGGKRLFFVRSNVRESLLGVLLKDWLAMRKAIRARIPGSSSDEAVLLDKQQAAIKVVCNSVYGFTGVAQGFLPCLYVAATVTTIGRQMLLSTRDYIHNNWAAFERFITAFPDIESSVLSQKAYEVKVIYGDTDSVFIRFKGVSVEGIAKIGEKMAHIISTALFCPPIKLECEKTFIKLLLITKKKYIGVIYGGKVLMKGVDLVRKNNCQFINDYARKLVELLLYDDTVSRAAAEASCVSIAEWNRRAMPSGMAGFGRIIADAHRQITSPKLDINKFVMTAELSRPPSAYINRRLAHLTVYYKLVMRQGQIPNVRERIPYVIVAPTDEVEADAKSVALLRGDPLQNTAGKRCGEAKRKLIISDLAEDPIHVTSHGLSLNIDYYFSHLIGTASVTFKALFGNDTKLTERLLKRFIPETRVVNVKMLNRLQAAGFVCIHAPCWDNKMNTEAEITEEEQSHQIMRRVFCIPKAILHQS

| SMILES | pIC50 (HCMV polymerase) | melting point [°C] | pIC50 (VZV polymerase) | pIC50 (HSV polymerase) |
| --- | --- | --- | --- | --- |
| Cn1cc(C(=O)NCc2ccc(Cl)cc2)c(=O)c2cc(CN3CCC[C@@H]3[C@@H](O)c3ccccc3)sc21 (relative stereo) [Example 2, N-(4-Chlorobenzyl)-2-(((2R*2)-(S*)-hydroxy(phenyl)methyl)pyrrolidin-1-yl)methyl)-7-methyl-4-oxo-4,7-dihydrothieno[2,3-b]pyridine-5-carboxamide] | 6.92 | 158 to 162 | 6.68 | 6.14 |
| Cn1cc(C(=O)NCc2ccc(Cl)cc2)c(=O)c2cc(CN3CCOC[C@@H]3Cc3ccccc3)sc21 [Example 1, 2-(((3S)-3-Benzylmorpholin-4-yl)methyl)-N-(4-chlorobenzyl)-7-methyl-4-oxo-4,7-dihydrothieno[2,3-b]pyridine-5-carboxamide] | 6.35 | – | 6.38 | 6.00 |
| Cn1cc(C(=O)NCc2ccc(Cl)cc2)c(=O)c2cc(CN3CCOC[C@@H]3[C@H](O)c3ccccc3)sc21 [Example 14, N-(4-Chlorobenzyl)-2-(((3R)-3-((R)-hydroxy(phenyl)methyl)morpholin-4-yl)-methyl)-7-methyl-4-oxo-4,7-dihydrothieno[2,3-b]pyridine-5-carboxamide] | 5.90 | 171 to 172 | – | 5.53 |
| Cn1cc(C(=O)NCc2ccc(Cl)cc2)c(=O)c2cc(CN3CCOC[C@@H]3[C@@H](O)c3ccccc3)sc21 [Example 15, N-(4-Chlorobenzyl)-2-(((3R)-3-((S)hydroxy(phenyl)methyl)morpholin-4-yl)-methyl)-7-methyl-4-oxo-4,7-dihydrothieno[2,3-b]pyridine-5-carboxamide] | 7.62 | 129 to 134 | – | 7.66 |
